SMILES strings stand for the structures.

Experiment in all cases: IA-DTB cysteine engagement
Holding throughout (assay type): binding
Details in all cases: 22Rv1 cells, 20 μM probe, 1 h, relative to DMSO

The target of one experiment is T1, LMF2_C659 (Homo sapiens, UniProt Q9BU23).
T1 construct: endogenous in cells; host or cells: 22Rv1
T1 sequence (Q9BU23 1-707): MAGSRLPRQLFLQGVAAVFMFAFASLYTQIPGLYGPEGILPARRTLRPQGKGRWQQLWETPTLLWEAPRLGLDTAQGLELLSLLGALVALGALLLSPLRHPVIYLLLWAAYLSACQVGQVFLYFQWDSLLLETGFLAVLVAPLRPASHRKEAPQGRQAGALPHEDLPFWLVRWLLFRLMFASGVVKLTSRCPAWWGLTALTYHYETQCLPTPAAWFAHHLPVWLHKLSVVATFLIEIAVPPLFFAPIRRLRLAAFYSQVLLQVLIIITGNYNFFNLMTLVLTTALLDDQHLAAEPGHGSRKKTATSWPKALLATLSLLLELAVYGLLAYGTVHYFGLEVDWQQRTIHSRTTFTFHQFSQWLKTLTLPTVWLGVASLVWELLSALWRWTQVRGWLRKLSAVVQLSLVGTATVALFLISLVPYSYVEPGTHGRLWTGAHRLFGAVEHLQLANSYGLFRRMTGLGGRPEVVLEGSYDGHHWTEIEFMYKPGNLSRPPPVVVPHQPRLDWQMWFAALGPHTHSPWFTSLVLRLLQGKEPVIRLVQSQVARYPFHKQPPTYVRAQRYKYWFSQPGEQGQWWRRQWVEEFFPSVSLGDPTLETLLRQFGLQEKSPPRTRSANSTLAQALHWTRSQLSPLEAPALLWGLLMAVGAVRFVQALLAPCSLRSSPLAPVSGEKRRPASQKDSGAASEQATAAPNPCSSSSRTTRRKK
The method, boiled down:
(§1)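 Cells were treated in situ with electrophilic probes, then lysed, and the lysates (2 mg/mL protein) were labeled with IA-DTB for 1 h at ambient temperature. After reduction, alkylation and trypsin digestion, labeled peptides were streptavidin-enriched, TMT-labeled and fractionated. Engagement ratios are probe vs DMSO reporter intensities, averaged across replicates.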

The target of the next experiment is T2, GNPAT_C122 (Homo sapiens, UniProt O15228).
T2 construct: endogenous in cells; host or cells: 22Rv1
T2 sequence (O15228 1-680): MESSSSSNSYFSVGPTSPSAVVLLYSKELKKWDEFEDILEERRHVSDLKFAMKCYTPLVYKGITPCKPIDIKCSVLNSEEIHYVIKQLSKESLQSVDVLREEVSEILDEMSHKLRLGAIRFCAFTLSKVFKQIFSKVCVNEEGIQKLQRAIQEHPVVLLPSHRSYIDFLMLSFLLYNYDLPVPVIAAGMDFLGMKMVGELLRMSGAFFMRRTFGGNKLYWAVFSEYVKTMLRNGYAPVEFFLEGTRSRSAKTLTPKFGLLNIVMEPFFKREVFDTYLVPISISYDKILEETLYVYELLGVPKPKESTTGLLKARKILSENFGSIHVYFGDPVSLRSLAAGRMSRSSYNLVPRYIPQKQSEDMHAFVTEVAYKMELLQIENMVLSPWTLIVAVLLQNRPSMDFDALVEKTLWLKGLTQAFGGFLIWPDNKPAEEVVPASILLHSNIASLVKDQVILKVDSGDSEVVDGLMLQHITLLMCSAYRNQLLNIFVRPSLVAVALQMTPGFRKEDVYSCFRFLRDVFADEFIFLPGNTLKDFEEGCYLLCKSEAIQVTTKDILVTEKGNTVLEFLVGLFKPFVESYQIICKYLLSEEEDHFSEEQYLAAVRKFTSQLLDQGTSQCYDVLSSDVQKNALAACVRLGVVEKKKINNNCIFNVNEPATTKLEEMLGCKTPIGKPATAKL
The method, boiled down: as §1

For the next experiment, the target named is T3, DHX9_C608 (Homo sapiens, UniProt Q08211).
T3 construct: endogenous in cells; host or cells: 22Rv1
T3 sequence (Q08211 whole entry): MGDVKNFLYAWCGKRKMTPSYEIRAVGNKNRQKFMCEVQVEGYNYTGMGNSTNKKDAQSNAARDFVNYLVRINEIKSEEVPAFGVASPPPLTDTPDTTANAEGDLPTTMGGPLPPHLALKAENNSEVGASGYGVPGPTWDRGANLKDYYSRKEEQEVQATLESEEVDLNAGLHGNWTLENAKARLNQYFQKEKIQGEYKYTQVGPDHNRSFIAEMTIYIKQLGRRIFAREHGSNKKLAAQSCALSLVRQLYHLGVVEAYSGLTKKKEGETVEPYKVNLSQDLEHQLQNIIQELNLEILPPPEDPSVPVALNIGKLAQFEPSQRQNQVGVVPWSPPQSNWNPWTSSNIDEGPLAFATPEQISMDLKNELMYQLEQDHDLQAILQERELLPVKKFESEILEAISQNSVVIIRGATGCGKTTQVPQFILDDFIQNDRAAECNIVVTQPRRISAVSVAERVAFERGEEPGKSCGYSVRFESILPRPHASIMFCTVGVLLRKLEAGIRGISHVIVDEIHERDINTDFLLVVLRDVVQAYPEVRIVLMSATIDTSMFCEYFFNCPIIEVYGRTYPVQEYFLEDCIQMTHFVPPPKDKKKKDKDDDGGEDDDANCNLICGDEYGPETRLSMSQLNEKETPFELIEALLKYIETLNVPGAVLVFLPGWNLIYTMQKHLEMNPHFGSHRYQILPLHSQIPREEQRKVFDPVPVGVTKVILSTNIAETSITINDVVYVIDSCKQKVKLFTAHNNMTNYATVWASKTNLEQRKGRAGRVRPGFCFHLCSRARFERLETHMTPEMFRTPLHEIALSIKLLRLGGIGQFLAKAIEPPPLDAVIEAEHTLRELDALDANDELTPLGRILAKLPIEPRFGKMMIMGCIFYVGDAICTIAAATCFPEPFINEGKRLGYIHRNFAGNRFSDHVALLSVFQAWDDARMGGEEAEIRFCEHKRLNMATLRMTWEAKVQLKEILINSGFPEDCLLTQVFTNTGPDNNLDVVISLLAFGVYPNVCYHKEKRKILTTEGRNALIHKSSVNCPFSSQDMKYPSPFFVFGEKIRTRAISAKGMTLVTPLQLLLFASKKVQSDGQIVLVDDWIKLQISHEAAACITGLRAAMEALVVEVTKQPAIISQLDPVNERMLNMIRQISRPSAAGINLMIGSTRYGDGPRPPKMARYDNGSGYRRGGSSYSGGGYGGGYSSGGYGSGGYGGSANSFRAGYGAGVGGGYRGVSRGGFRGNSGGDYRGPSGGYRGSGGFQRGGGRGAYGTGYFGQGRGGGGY
Summed up:
as §1

Consider `C=CC(=O)N1C[C@@H](c2ccc(Br)cc2)[C@H]1C(=O)Nc1cccc2cccnc12` [MY-1A, (2S,3R)-1-acryloyl-3-(4-bromophenyl)-N-(quinolin-8-yl)azetidine-2-carboxamide], for which, on LMF2_C659, the “% engagement LMF2_C659” value came out at 66%. Besides, at GNPAT_C122, the “% engagement GNPAT_C122” value is recorded as 70.5%. Moreover, the “% engagement DHX9_C608” value on DHX9_C608 is listed as −10.5%.

With `C=CC(=O)N1C[C@H](c2ccc(Br)cc2)[C@@H]1C(=O)Nc1cccc2cccnc12` [MY-1B, (2R,3S)-1-acryloyl-3-(4-bromophenyl)-N-(quinolin-8-yl)azetidine-2-carboxamide], the “% engagement LMF2_C659” value at LMF2_C659 was determined as 65.75%. Moreover, at GNPAT_C122, the “% engagement GNPAT_C122” value is reported as 74.5%. Further, the “% engagement DHX9_C608” value at DHX9_C608 is reported as −11%.

For `C=CC(=O)N1C[C@H](c2ccc(Br)cc2)[C@H]1C(=O)Nc1cccc2cccnc12` [MY-3A, (2S,3S)-1-acryloyl-3-(4-bromophenyl)-N-(quinolin-8-yl)azetidine-2-carboxamide], the “% engagement LMF2_C659” value on LMF2_C659 was determined as 44.75%. In addition, the “% engagement GNPAT_C122” value on GNPAT_C122 was 35.5%. For the same molecule, the “% engagement DHX9_C608” value on DHX9_C608 came to 16%.

For the molecule `C=CC(=O)N1C[C@H](c2ccc(Br)cc2)[C@H]1C(=O)Nc1cccc2cccnc12` [MY-3B, (2S,3S)-1-acryloyl-3-(4-bromophenyl)-N-(quinolin-8-yl)azetidine-2-carboxamide], at LMF2_C659, the “% engagement LMF2_C659” value is listed as 69.25%. Further, the “% engagement GNPAT_C122” value at GNPAT_C122 turned out to be 51.5%. Also, the “% engagement DHX9_C608” value at DHX9_C608 is recorded as 69.5%.

These data come from US20250034216A1, “STEREOSELECTIVE COVALENT LIGANDS FOR ONCOGENIC AND IMMUNOLOGICAL PROTEINS” (The Scripps Research Institute, priority 2021, published 2025).
